According to publication PMC3139892, “Effective Control of Postprandial Glucose Level through Inhibition of Intestinal Alpha Glucosidase by Cymbopogon martinii (Roxb.)” (Evidence-based Complementary and Alternative Medicine : eCAM, 2011):

Target: T1, intestinal alpha glucosidase (maltase activity)
T1 construct: gene Mgam; mixture of intestinal alpha-glucosidases
Assay: maltose hydrolysis, glucose by glucose oxidase (GOD-PAP)
Type: biochemical, Rattus norvegicus
Details: 25 mM maltose, 100 mM phosphate pH 7.2, 37°C, 30 min; mucosal enzyme preparation
Excerpt: maltose hydrolysis, glucose by glucose oxidase (GOD-PAP) on intestinal alpha glucosidase (maltase activity)

How did the “Acarbose / IC50” value turn out when `C[C@H]1O[C@H](O[C@H]2[C@H](O)[C@@H](O)[C@@H](O[C@H]3[C@H](O)[C@@H](O)C(O)O[C@@H]3CO)O[C@@H]2CO)[C@H](O)[C@@H](O)[C@@H]1N[C@H]1C=C(CO)[C@@H](O)[C@H](O)[C@H]1O` (stereo partly shown) [acarbose] was run?
The value was 60 µg/mL.
